The target in the first assay is T1, cloned human dopamine D3 receptors (Homo sapiens, UniProt P35462).
T1 construct: expressed in transfected cells; membrane homogenate
T1 sequence (P35462 whole entry): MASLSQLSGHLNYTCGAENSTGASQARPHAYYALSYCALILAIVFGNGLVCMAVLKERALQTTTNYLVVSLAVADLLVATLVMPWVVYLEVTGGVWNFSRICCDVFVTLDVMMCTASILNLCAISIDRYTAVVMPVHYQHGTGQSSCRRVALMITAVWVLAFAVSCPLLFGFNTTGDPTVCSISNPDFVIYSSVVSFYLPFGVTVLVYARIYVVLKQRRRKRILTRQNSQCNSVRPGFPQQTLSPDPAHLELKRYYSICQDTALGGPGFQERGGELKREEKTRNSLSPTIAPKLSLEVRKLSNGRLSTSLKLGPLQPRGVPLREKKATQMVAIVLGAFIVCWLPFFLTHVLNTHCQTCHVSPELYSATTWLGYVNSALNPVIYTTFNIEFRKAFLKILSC
Nature of the assay: [N-Methyl-3H]Spiroperidol binding to cloned human dopamine D3 receptors. The note with it: D3 Ki. The essentials: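 Stably transfected CHO cells expressing cloned human D3 receptor were used as membranes homogenized in 10% DMSO. Ligand was [N-methyl-3H]spiroperidol displacement.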
Turning to `O=C([C@@H]1C[C@H]1CN1CCN(c2csc3cc(C(F)(F)F)ccc23)CC1)N1CCC(Nc2ccc(Cl)cc2)CC1` [compound 832495], the Ki turned out to be 0.0636 µM.

Still in this assay, the particulars now being: read-out: D3 Ki.
For the compound `O=C(NCCCn1ccnc1)[C@@H]1C[C@H]1CN1CCN(c2csc3cc(C(F)(F)F)ccc23)CC1` [compound 831269], the Ki amounted to 0.00408 µM. Turning to `CN1CCN(CCCNC(=O)[C@@H]2C[C@H]2CN2CCC(c3nn(C)c4c(C(F)(F)F)cccc34)CC2)CC1` [A002439259], the Ki amounted to 0.0391 µM. For `COc1ccc(CCNC(=O)[C@@H]2C[C@H]2CN2CCC(c3noc4ccsc34)CC2)cc1` [compound 831344], the Ki is 0.0221 µM. For the compound `O=C(NC1CCN(Cc2cccc(Cl)c2)CC1)[C@@H]1C[C@H]1CN1CCC(c2noc3ccsc23)CC1` [compound 832728], the Ki was determined as 0.00312 µM. As for `O=C(NC1CCN(Cc2ccc3ccccc3c2)CC1)C1CC1CN1CCC(c2noc3ccsc23)CC1` (racemic) [compound 831818], the Ki is 0.000117 µM. On the same count and under the same terms, then `COc1ccc2c(c1)c(N1CCN(C[C@@H]3C[C@H]3C(=O)NC3CCN(Cc4ccc(F)cc4)CC3)CC1)nn2C` [compound 833835], with 0.000499 µM. As to `O=C(NNC(=O)C1CC1CN1CCC(c2noc3ccsc23)CC1)c1ccc(Cl)cc1` (racemic) [compound 831812], the Ki turned out to be 0.453 µM. For `O=C(NC1CCN(Cc2cccc(F)c2F)CC1)C1CC1CN1CCC(c2noc3ccsc23)CC1` (racemic) [compound 832340], the Ki was found to be 0.0115 µM. Regarding `C[C@H]1CC[C@H](NC(=O)[C@@H]2C[C@H]2CN2CCN(c3nn(-c4ccccc4)c4ccsc34)CC2)CC1` [compound 832849], the Ki is 0.00112 µM.

With `Cc1nc(Cl)c(Cl)n1CCCNC(=O)[C@@H]1C[C@H]1CN1CCN(c2csc3cc(C(F)(F)F)ccc23)CC1` [compound 832512], the Ki worked out at 0.0157 µM. For the compound `COc1ccc2[nH]nc(N3CCN(C[C@@H]4C[C@H]4C(=O)N[C@H]4CC[C@H](C)CC4)CC3)c2c1` [compound 833704], the Ki is 0.0023 µM.

Consider `O=C(C1CC1CN1CCC(c2noc3ccsc23)CC1)N1CCN(C2CCCC2)CC1` (racemic) [compound 832196], for which the Ki is 0.0229 µM.

In the case of `O=C(NCCCn1cnc2ccccc21)[C@@H]1C[C@H]1CN1CCC(c2noc3ccsc23)CC1` [compound 831377], the Ki was found to be 0.00468 µM. With `CC(C)NC(=O)CN1CCN(C(=O)[C@@H]2C[C@H]2CN2CCN(c3csc4cc(C(F)(F)F)ccc34)CC2)CC1` [compound 832582], the Ki was determined as 0.025 µM.

Regarding `O=C(NCCSc1ccc(Cl)cc1)[C@@H]1C[C@H]1CN1CCN(c2csc3cc(C(F)(F)F)ccc23)CC1` [compound 832497], the Ki came out at 0.038 µM. On to `O=C(NC1CCN(Cc2ccc(F)cc2)CC1)[C@@H]1C[C@H]1CN1CCC(c2noc3ccsc23)CC1` [compound 832732], for which the Ki came to 0.00074 µM. `O=C(NC1CC2CCC1C2)C1CC1CN1CCC(c2noc3ccsc23)CC1` (racemic) [compound 827395]: the Ki was determined as 0.0314 µM. With `O=C(NCCc1c[nH]cn1)[C@@H]1C[C@H]1CN1CCC(c2noc3ccsc23)CC1` [compound 831192], the Ki was found to be 0.00344 µM. The same measure, in the same setting: then `O=C(NCCCN1CCSCC1)[C@@H]1C[C@H]1CN1CCN(c2nn(-c3ccc(C(F)(F)F)cc3)c3ccsc23)CC1` [compound 834206], with 0.0888 µM. `CN(C)CCN1CCN(C(=O)[C@@H]2C[C@H]2CN2CCN(c3csc4cc(C(F)(F)F)ccc34)CC2)CC1` [compound 832580]: the Ki was found to be 0.0288 µM.

Turning to `Cc1ccc(CN2CCN(C(=O)C3CC3CN3CCC(c4noc5ccsc45)CC3)CC2)cc1` (racemic) [compound 832154], the Ki is 0.0219 µM. Same read-out and setting: with `CC1CCC(NC(=O)C2CC2CN2CCC(n3c(=O)[nH]c4ccccc43)CC2)CC1` (racemic) [compound 827211] the figure was 0.353 µM; with `O=C(N[C@H]1CC[C@H](O)CC1)[C@@H]1C[C@H]1CN1CCN(c2nn(-c3ccc(C(F)(F)F)cc3)c3ccsc23)CC1` [compound 832648], 0.0208 µM. Same read-out and setting: with `O=C([C@@H]1C[C@H]1CN1CCN(c2csc3cc(C(F)(F)F)ccc23)CC1)N1CCC(N2CCCC2)CC1` [compound 832510] the figure was 0.025 µM; with `CCCc1cc(N2CCN(CC3CC3C(=O)NC3CCC(C)CC3)CC2)nc(C(C)(C)C)n1` (racemic) [compound 817275], 0.00334 µM.

`O=C([C@@H]1C[C@H]1CN1CCC(c2noc3ccsc23)CC1)N1CCCC(Cn2ccnc2)C1` (mixture of isomers) [compound 832269]: the Ki came to 0.0051 µM. Regarding `O=C(NC1CCN(C(=O)Nc2ccc(F)cc2)CC1)C1CC1CN1CCC(c2noc3ccsc23)CC1` (racemic) [832576ES], the Ki was 0.0175 µM.

As for `O=C(C1CC1CN1CCC(c2noc3ccsc23)CC1)N1CCN(Cc2ccc3c(c2)OCO3)CC1` (racemic) [compound 832165], the Ki amounted to 0.0301 µM.

In the case of `CC(C)(C)OC(=O)N1CCC(CNC(=O)[C@@H]2C[C@H]2CN2CCC(c3nn(-c4ccccc4)c4ccsc34)CC2)CC1` [A002439262], the Ki was determined as 0.0283 µM. Same read-out and setting: then `O=C(NCCN1CCNC1=O)[C@@H]1C[C@H]1CN1CCN(c2csc3cc(C(F)(F)F)ccc23)CC1` [compound 832498], with 0.0703 µM.

Regarding `CC(C)N1CCN(C(=O)[C@@H]2C[C@H]2CN2CCC(c3noc4ccsc34)CC2)CC1` [compound 833127], the Ki stood at 0.0796 µM. As for `Cc1ccc(CN2CCC(NC(=O)C3CC3CN3CCC(c4noc5ccsc45)CC3)CC2)cc1` (racemic) [compound 831992], the Ki stood at 0.00481 µM.

Take `O=C(N[C@H]1CC[C@H](O)CC1)[C@@H]1C[C@H]1CN1CCC(c2noc3c(C(F)(F)F)cccc23)CC1` [compound 832271]: the Ki was 0.112 µM. In the case of `O=C(NC1CCN(Cc2cc(Cl)ccc2Cl)CC1)C1CC1CN1CCC(c2noc3ccsc23)CC1` (racemic) [compound 832347], the Ki amounted to 0.00188 µM. Still for that read-out and setting: then `COc1ccc2c(c1)c(N1CCN(C[C@@H]3C[C@H]3C(=O)N3CCCC(Cn4ccnc4)C3)CC1)nn2C` (mixture of isomers) [compound 834173], with 0.00515 µM. Take `COc1cccc2c(C3CCN(C[C@@H]4C[C@H]4C(=O)N4CCC(C(=O)c5ccc(F)cc5)CC4)CC3)noc12` [compound 831810]: the Ki amounted to 0.124 µM. Regarding `O=C(NCCCc1ccccc1)[C@@H]1C[C@H]1CN1CCC(c2noc3ccsc23)CC1` [compound 830828], the Ki worked out at 0.00857 µM. `O=C([C@@H]1C[C@H]1CN1CCC(c2noc3ccsc23)CC1)N1CCC(CCN2CCCC2)CC1` [compound 833509]: the Ki is 0.0415 µM. Same read-out and setting: then `C=CCN1CCN(C(=O)C2CC2CN2CCC(c3noc4ccsc34)CC2)CC1` (racemic) [compound 832189], with 0.0585 µM; and `O=C(NCCCN1CCCCCC1)[C@@H]1C[C@H]1CN1CCN(c2csc3cc(C(F)(F)F)ccc23)CC1` [compound 832511], with 0.0123 µM; and `Cn1nc(N2CCN(C[C@@H]3C[C@H]3C(=O)NC3CCN(Cc4cc(F)ccc4F)CC3)CC2)c2sccc21` [A002436429], with 0.00416 µM.

On to `COc1cccc2c(C3CCN(C[C@@H]4C[C@H]4C(=O)NC4CC5CCC4(C)C5(C)C)CC3)nn(C)c12` (some centres unmarked) [compound 834055], for which the Ki came out at 0.062 µM. Regarding `O=C(NCCS(=O)(=O)c1cccc2cnccc12)C1CC1CN1CCC(c2noc3ccsc23)CC1` (racemic) [compound 832044], the Ki stood at 0.657 µM.

`CC1CCCCN1C(=O)[C@@H]1C[C@H]1CN1CCC(c2noc3ccsc23)CC1` (mixture of isomers) [compound 829462]: the Ki was 0.00965 µM. In the case of `CN1CCC[C@@H]1CCNC(=O)[C@@H]1C[C@H]1CN1CCN(c2csc3cc(C(F)(F)F)ccc23)CC1` [compound 832216], the Ki worked out at 0.0765 µM. As to `C[C@H]1CC[C@H](NC(=O)[C@@H]2C[C@H]2CN2CCN(c3csc4ncccc34)CC2)CC1` [compound 833700], the Ki was determined as 0.00324 µM.

For the compound `O=C(NCc1cccc(Oc2ccccc2)c1)C1CC1CN1CCC(c2noc3ccsc23)CC1` (racemic) [compound 831735], the Ki was determined as 0.0813 µM. As to `O=C(NCC1CCCNC1)[C@@H]1C[C@H]1CN1CCN(c2csc3cc(C(F)(F)F)ccc23)CC1` (mixture of isomers) [compound 832504], the Ki is 0.00577 µM. For `O=C(NCCc1ccccc1)C1(CCN2CCC(c3noc4ccsc34)CC2)CC1` [compound 832180], the Ki turned out to be 0.091 µM. The same measure, in the same setting: with `CN1CCN(CCCNC(=O)[C@@H]2C[C@H]2CN2CCN(c3nn(C)c4ccsc34)CC2)CC1` [A002329040] the figure was 0.16 µM; with `Cc1cccc(CN2CCC(NC(=O)C3CC3CN3CCC(c4noc5ccsc45)CC3)CC2)c1` (racemic) [compound 832348], 0.000465 µM. Still for that read-out and setting: with `CCC1CCC(NC(=O)C2CC2CN2C3CCC2CC(c2n[nH]c4cc(F)ccc24)C3)CC1` (centres unmarked) [compound 830130] the figure was 0.00668 µM. For the compound `O=C(NCCN1CCNCC1)[C@@H]1C[C@H]1CN1CCN(c2csc3cc(C(F)(F)F)ccc23)CC1` [compound 833322], the Ki came to 0.0128 µM. As to `O=C([C@@H]1C[C@H]1CN1CCC(c2noc3ccsc23)CC1)N1CCC(c2nc3ccccc3s2)CC1` [compound 832527], the Ki was 0.0454 µM. As to `Cc1ncc([N+](=O)[O-])n1CCNC(=O)[C@@H]1C[C@H]1CN1CCC(c2noc3ccsc23)CC1` [compound 831379], the Ki was 0.0467 µM. Same read-out and setting: then `CC(C)(C)c1ccc(CCNC(=O)[C@@H]2C[C@H]2CN2CCC(c3noc4ccsc34)CC2)cc1` [compound 833129], with 0.0953 µM; and `O=C(N1CCCC1)C1(CCN2CCC(c3noc4ccsc34)CC2)CC1` [compound 832239], with 0.207 µM; and `O=C(C1CC1CN1CCC(c2noc3ccsc23)CC1)N1CCN(C2CCCCC2)CC1` (racemic) [compound 829591], with 0.0724 µM.

As for `COc1ccc2c(c1)c(N1CCN(C[C@@H]3C[C@H]3C(=O)N3CCN(Cc4ccc(C)cc4)CC3)CC1)nn2C` [compound 833125], the Ki came to 0.0708 µM.

Staying with this assay, now noted: read-out: d3Ki.
For `CN(C(=O)CCCCN1CCN(c2csc3cc(F)ccc23)CC1)c1ccc(C(C)(C)C)cc1` [compound 822140], the Ki is 0.113 µM. With `CCOC(=O)[C@H]1CC[C@H](NC(=O)CCCN2CCN(c3csc4cc(C(F)(F)F)ccc34)CC2)CC1` [compound 826805], the Ki stood at 0.0142 µM.

The values are drawn from patent US7772252B2, “Heterocyclic substituted carbonyl derivatives and their use as dopamine D3 receptor ligands” (Aventis Pharmaceuticals Inc., priority 2001, dated 2010).
